Test results as given in US9497966B2, “Pesticidal compositions and related methods” (DOW AGROSCIENCES LLC, priority 2013, dated 2016).

Assays:
[1] = tested on: Green Peach Aphid (Myzus persicae) (GPA) (MYZUPE); assay: Bioassay for Green Peach Aphid, foliar spray on infested cabbage seedlings; format: in vivo; settings: 72 h, 200 ppm foliar spray on cabbage, graded after three days, Abbott-corrected % control, read-out: % Control (or Mortality) rating, GPA
Protocol: Example A: Bioassays for Green Peach Aphid (Myzus persicae) (GPA) (MYZUPE)
Cabbage seedlings grown in 3-inch pots, with 2-3 small (3-5 cm) true leaves, were used as test substrate. The seedlings were infested with 20-50 GPA (wingless adult and nymph stages) one day prior to chemical application. Four pots with individual seedlings were used for each treatment. Test compounds (2 mg) were dissolved in 2 mL of acetonemethanol (1:1) solvent, forming stock solutions of 1000 ppm test compound. The stock solutions were diluted 5× with 0.025% Tween 20 in H2O to obtain the solution at 200 ppm test compound. A hand-held aspirator-type sprayer was used for spraying a solution to both sides of […] leaves until runoff. Reference plants (solvent check) were sprayed with the diluent only containing 20% by volume of acetonemethanol (1:1) solvent. Treated plants were held in a holding room for three days at approximately 25° C. and ambient relative humidity (RH) prior to grading. Evaluation was conducted by counting the number of live aphids per plant under a microscope. Percent control was measured by using Abbott's correction formula (W. S. Abbott, “A Method of Computing the Effectiveness of an Insecticide,” J. Econ. Entomol. 18 (1925), pp. 265-267) as follows. Corrected % Control=100*(X−Y)/X • where • X=No. of live aphids on solvent check plants and • Y=No. of live aphids on treated plants The results are indicated in the table entitled “TABLE 2. Biological Data for Green Peach Aphid (MYZUPE) and Sweetpotato Whitefly-crawler (WF) (BEMITA)” (See Table Section).

[2] = tested on: Sweetpotato Whitefly-Crawler (Bemisia tabaci) (WF) (BEMITA); assay: Insecticidal test for Sweetpotato Whitefly-Crawler in foliar spray assay on cotton plants; format: in vivo; settings: 216 h, 200 ppm foliar spray on cotton, graded after 9 days, Abbott-corrected % control, read-out: % Control (or Mortality) rating, WF
Protocol: Example B: Insecticidal Test for Sweetpotato Whitefly-Crawler (Bemisia tabaci) (WF) (BEMITA) in Foliar Spray Assay
Cotton plants (Gossypium hirsutum) grown in 3-inch pots, with 1 small (4-5 cm) true leaves, were used as test substrate. The plants were infested with 200-400 whitefly eggs 4-5 days prior to chemical application. Four pots with individual plants were used for each treatment. Test compounds (2 mg) were dissolved in 1 mL of acetone solvent, forming stock solutions of 2000 ppm test compound. The stock solutions were diluted 10× with 0.025% Tween 20 in H2O (diluents) to obtain the solution at 200 ppm test compound. A hand-held aspirator-type sprayer was used for spraying a solution to both sides of cotton leaves until runoff. Reference plants (solvent check) were sprayed with the diluent only containing 10% by volume of acetone solvent. Treated plants were held in a holding room for 9 days at approximately 25° C. and ambient relative humidity (RH) prior to grading. Evaluation was conducted by counting the number of live 3-4 nymph stage per plant under a microscope. Percent control was measured by using Abbott's correction formula (W. S. Abbott, “A Method of Computing the Effectiveness of an Insecticide,” J. Econ. Entomol. 18 (1925), pp. 265-267) as follows. Corrected % Control=100*(X−Y)/X • where • X=No. of live nymphs on solvent check plants and • Y=No. of live nymphs on treated plants.
Biological Data for Green Peach Aphid (MYZUPE) and Sweetpotato Whitefly-crawler (WF) (BEMITA)” (See Table Section).

CON=C(CS(=O)(=O)CCC(F)(F)F)C(=O)N(C)c1cn(-c2cccnc2)nc1Cl [Compound P47, N-(3-chloro-1-(pyridin-3-yl)-1H-pyrazol-4-yl)-2-(methoxyimino)-N-methyl-3-((3,3,3-trifluoropropyl)sulfonyl)propanamide]
mortality at 200 ppm [1]: 80 to 100%
mortality at 200 ppm [2]: 80 to 100%

CON=C(CS)C(=O)N(C)c1cn(-c2cccnc2)nc1Cl [FA2, N-(3-chloro-1-(pyridin-3-yl)-1H-pyrazol-4-yl)-3-mercapto-2-(methoxyimino)-N-methylpropanamide]
melting point: 116 to 121 °C
